{"source": "a melting point compilation (Tetko et al.; mined from patent text by program, amines drawn as free bases though some values may be those of a salt)", "data": [{"units": {"melting point": "°C"}, "values": [{"compound": "CC1CC(O)=NN1c1ccc(Cl)c(Cl)c1", "note": "(centres undefined)", "melting point": "208 to 211"}, {"compound": "Cc1[nH]cnc1CN1CC2COc3ccccc3N2C1=O", "note": "(centres undefined)", "melting point": "212 to 216"}, {"compound": "NNC(=O)c1ncc2[nH]c3ccccc3c2n1", "melting point": "> 340"}, {"compound": "O=C1CCCCCCCCCCCCCCC1", "melting point": 67.7}, {"compound": "CCS(=O)(=O)N(C(C)=O)c1cc(-c2ncnc(C(F)(F)F)c2Cl)c(F)cc1C#N", "melting point": "144 to 146"}, {"compound": "Clc1ccccc1Oc1ncc2c(-c3cccs3)n[nH]c2n1", "melting point": "221 to 223"}, {"compound": "CCCCn1c(=O)c2c(ncn2S(=O)(=O)c2cccc3ccccc23)n(CCCC)c1=O", "melting point": "135 to 136"}, {"compound": "Cc1nc2scc(C)n2c1S(N)(=O)=O", "melting point": "177 to 178"}, {"compound": "CCOC(=O)/C=C/c1cn(-c2ccc(C(F)(F)F)cn2)nc1C1CCCCC1", "melting point": "132 to 133"}, {"compound": "O=C(O)CCCc1cnoc1-c1ccccc1", "melting point": "67 to 68"}, {"compound": "Nc1ccccc1-c1cnoc1", "melting point": "48 to 51"}, {"compound": "Cc1cc2c(c3ccc(=O)[nH]c13)OC(CNC(=O)[C@@H](C)NC(=O)OCc1ccccc1)C2", "note": "(some centres undefined)", "melting point": "221 to 222"}, {"compound": "Cc1c(NC(=O)c2ccc(-c3ccc4c(c3)OCO4)cc2)ccc2cc(CN3CCCC3)cnc12", "melting point": "171 to 172"}, {"compound": "Cc1nc[nH]c1CSCCN=C(NC#N)NCCCCCCCN", "melting point": "84 to 87"}, {"compound": "CC(C)(C)OC(=O)N1CCN(c2cc(Cl)ccc2N)CC1", "melting point": "125 to 127"}, {"compound": "O=[N+]([O-])c1c(-c2ccccc2)nn(CCCn2nc(-c3ccccc3)c([N+](=O)[O-])c2NCc2ccccc2)c1NCc1ccccc1", "melting point": "142 to 144"}, {"compound": "CC(=O)Nc1c(C(=O)c2cc(Cl)ccn2)[nH]c2cc(Cl)ccc12", "melting point": "201 to 202"}, {"compound": "COC(=O)c1nn(-c2cccc(NC(C)=O)c2)c(=O)n(Cc2ccc(Cl)cc2)c1=O", "melting point": 193}, {"compound": "C=CC(c1ccccc1)c1cc(C)c2c(c1O)C(=O)CC2", "note": "(centres undefined)", "melting point": "131 to 132"}, {"compound": "Cc1ncc(C=S)c(Nc2ccccc2)n1", "melting point": 106}, {"compound": "COP(=O)(Cc1cc(CP(=O)(OC)OC)cc(CP(=O)(OC)OC)c1)OC", "melting point": 106}, {"compound": "N#Cc1ccc2cc(-c3cccc(O)c3)oc2c1", "melting point": "225 to 227"}, {"compound": "CS(=O)(=O)c1ccc(-c2cnn(-c3ccc(F)c(Cl)c3)c(=O)c2C2CCCCC2)cc1", "melting point": "180 to 181"}, {"compound": "O=C1CCc2cc3ccccc3n2C1", "melting point": "126 to 128"}, {"compound": "COC(=O)C1N(c2c(C)cccc2C)C(=N)C(C)N1c1c(C)cccc1C", "note": "(centres undefined)", "melting point": "141 to 142"}, {"compound": "CCCCCC1(c2ccc(C)cc2)OCc2c(O)c(C)nc(Cl)c21", "note": "(centres undefined)", "melting point": 180}, {"compound": "COC(=O)c1cccc(CN2C(=O)C3(COc4cc5c(cc43)OCCO5)c3ccccc32)c1", "note": "(centres undefined)", "melting point": "89 to 97"}, {"compound": "Cc1oc(C=Cc2cccc(Cl)c2)nc1CC#N", "melting point": "119 to 120"}, {"compound": "CCCn1nc(-c2ccc(Cl)c(Cl)c2)c(-n2ccnc2)c1SC", "melting point": "91 to 93"}, {"compound": "Cc1cccn2cc(CN3CCN(c4ccc(Cl)cc4)CC3)nc12", "melting point": "102 to 104"}, {"compound": "CCCn1c(=O)n(CC(C)=O)c(=O)c2[nH]c(C34CC5CC(CC3C5)C4)nc21", "melting point": "181 to 184"}, {"compound": "CCN(CC)C(=O)C=C1C=C(C(C)(C)C)C(=O)C(C(C)(C)C)=C1", "melting point": "109 to 110"}, {"compound": "C=CCC(C)(CC=C)C(=O)O[C@H]1C[C@H](O)C=C2C=C[C@H](C)[C@H](CC[C@@H]3C[C@@H](O)CC(=O)O3)[C@H]21", "melting point": "115 to 116"}, {"compound": "Cc1cccc(C(=O)c2ccc(OCCOc3ccc(C(=O)c4cccc(C)c4)cc3)cc2)c1", "melting point": "164 to 167"}, {"compound": "CC1(C)CC(NCCNCCNC2CC(C)(C)N(O)C(C)(C)C2)CC(C)(C)N1O", "melting point": "118 to 124"}, {"compound": "CCOCc1nc2c(N)nc(C)c(C)c2n1Cc1cc(-c2ccc(F)cc2)no1", "melting point": "246 to 247"}, {"compound": "O=c1ccc(S(=O)(=O)n2cccc2)n[nH]1", "melting point": "140 to 145"}, {"compound": "Cc1cc([N+](=O)[O-])c(Cl)c([N+](=O)[O-])c1CBr", "melting point": "115 to 120"}, {"compound": "CNC(=NC#N)NCc1cccnc1", "melting point": "183 to 184"}, {"compound": "Cn1ccc(=O)c(OCc2ccccc2)c1C(O)c1cccnc1", "note": "(centres undefined)", "melting point": "169 to 174"}, {"compound": "N=C(N)NCc1cc(CCC(=O)O)no1", "melting point": "> 297"}, {"compound": "CC(C)CNc1cc[nH]c(=S)c1C#N", "melting point": "117 to 119"}, {"compound": "Cc1ccccc1NC(=NC#N)NC(NC(=O)Cc1ccc(Cl)cc1)C(C)(C)C", "note": "(centres undefined)", "melting point": "181 to 182"}, {"compound": "Cc1c(-c2cccnc2)n(CCCCCCCC(=O)O)c2ccccc12", "melting point": "110 to 113"}, {"compound": "CC(=O)NCc1ccc(CN2CCN(c3nccc(N(C)C)n3)CC2)cc1", "melting point": "152 to 155"}, {"compound": "CCC(=O)Oc1ccc(S(=O)(=O)N2c3ccccc3-c3ccc(F)cc3C2CC)cc1", "note": "(centres undefined)", "melting point": "111 to 112"}, {"compound": "C#CCn1c(=O)sc2cc(F)c(-n3c(OC)nc(C(F)(F)F)cc3=O)cc21", "melting point": "191 to 192"}, {"compound": "OCCOc1ccc2ncccc2c1", "melting point": "68 to 70"}, {"compound": "CCOC(=O)N=C(N)c1ccc(OCc2cccc(COc3ccc(C(C)(C)c4ccccc4)cc3)c2)cc1", "melting point": 99}, {"compound": "O=C(Nc1cnc2c(c1)nc1n2CCC1O)c1cc2cc(C(F)(F)F)ccc2n1Cc1cccc(F)c1", "note": "(centres undefined)", "melting point": "267 to 268"}, {"compound": "CC(=O)Nc1ccc(NC(=O)CCl)c(O)c1", "melting point": 218}, {"compound": "O=C1C=C(NC(=O)C(=O)c2cn(Cc3cccc(C(F)(F)F)c3)c3cc([N+](=O)[O-])ccc23)CO1", "melting point": "279 to 281"}, {"compound": "CC1(C)CC(=O)c2cc(C#N)ccc2O1", "melting point": "119 to 120"}, {"compound": "CCOC(=O)c1ccc(-c2nc(COc3ccc(CO)cc3OC)c(C)o2)o1", "melting point": "105 to 106"}, {"compound": "CC1CNCCNCCNCCNCCN1", "note": "(centres undefined)", "melting point": "73 to 75"}, {"compound": "Cc1cc(SC(C)CC(Sc2cc(C)c(O)c(C(C)(C)C)c2)Sc2cc(C)c(O)c(C(C)(C)C)c2)cc(C(C)(C)C)c1O", "note": "(centres undefined)", "melting point": "65 to 69"}, {"compound": "O=c1c(-c2ccc(F)cc2)coc2c(O)c(O)ccc12", "melting point": 289}, {"compound": "COc1ccc2c(Cc3c(Cl)cncc3Cl)nn(CC(=O)O)c(=O)c2c1", "melting point": "221 to 222"}, {"compound": "Cc1onc(-c2c(Cl)cccc2Cl)c1CN1C(=O)C2(COc3cc4c(cc32)OCO4)c2ccccc21", "note": "(centres undefined)", "melting point": "190 to 192"}, {"compound": "CC=C1CCC2C3CCC4CC(O)CCC4(C)C3C(N(C)C)CC12C", "note": "(centres undefined)", "melting point": "59 to 61"}, {"compound": "CC1OC(n2cc(F)c(N)nc2=O)C(O)C1OC(=O)c1ccccc1", "note": "(centres undefined)", "melting point": "127 to 129"}, {"compound": "COCc1nnc(SCC(=O)C23CC4CC(CC(C4)C2)C3)n1C", "melting point": "109 to 111"}, {"compound": "Cn1cnc(COc2nn3c(-c4ccon4)nnc3c3ccccc23)c1", "melting point": "191 to 192"}, {"compound": "Cc1ccc(Cn2nc(C(=O)O)cc2-c2ccc(Cl)c(C)c2)cc1", "melting point": 180}, {"compound": "O=C1NCCc2c(-c3ccsc3)[nH]c3cccc1c23", "melting point": "255 to 256"}, {"compound": "CCOc1nc2cccc(C(=O)O)c2n1Cc1ccc(-c2ccccc2-c2nc(=O)o[nH]2)cc1", "melting point": "156 to 157"}, {"compound": "CC(C)CCc1cc(C(O)=S)cc(N)c1C(=O)c1ccccc1", "melting point": "141 to 142"}, {"compound": "NC(=O)CC12CCCCC1CCc1ccccc12", "note": "(centres undefined)", "melting point": 177}, {"compound": "CC(C)CNC(=O)[C@H]1C[C@@H](S(=O)(=O)c2ccc([N+](=O)[O-])cc2)[C@@H](c2ccccc2F)N1", "note": "(racemic)", "melting point": 218}, {"compound": "O=C(NNc1ccc(NC(=S)Nc2ccccc2)cc1)C(F)(F)F", "melting point": "172 to 174"}, {"compound": "CC1(C)CC(O)CC(C)(C)N1CC(O)CO", "note": "(centres undefined)", "melting point": "97 to 99"}, {"compound": "O=C(COc1cccc(CCNS(=O)(=O)c2ccc(Cl)cc2)c1)N1CCOCC1", "melting point": "110 to 111"}, {"compound": "CS(=O)c1cc(C(=O)O)c(Cl)cc1Cl", "note": "(centres undefined)", "melting point": "200 to 201"}, {"compound": "CCOC(=O)c1ncc2[nH]c3cccc(Oc4ncccn4)c3c2c1COC", "melting point": "96 to 98"}, {"compound": "Cn1c(C(F)(F)C(F)(F)F)cc(=O)n(-c2cc(C(=O)O)c(Cl)cc2F)c1=O", "melting point": "229 to 231"}, {"compound": "CCN(CC)CCNc1cccc2c1C(=O)c1cccc(NCCN(CC)CC)c1C2=O", "melting point": "158 to 160"}, {"compound": "O=C1CCC2N1CC(=O)N2c1ccccc1", "note": "(centres undefined)", "melting point": "185 to 188"}, {"compound": "C=CC1CC1(C(C)=O)C(=O)Nc1ccccc1", "note": "(centres undefined)", "melting point": "104 to 105"}, {"compound": "CCCCCCCNC(=O)Nc1ccccc1C(=O)NCC1CCN(C(c2ccccc2)c2ccccc2)CC1", "melting point": "146 to 148"}, {"compound": "CC(c1ccncn1)C(O)(Cn1cncn1)c1ccc(F)cc1F", "note": "(centres undefined)", "melting point": "114 to 116"}, {"compound": "COc1cc2ncnc(Nc3ccc(F)c(Cl)c3)c2cc1OCCN1CC(=O)O[C@@H](C)C1", "melting point": "212 to 213"}, {"compound": "O=C(Nc1cccc(-n2ccnc2)c1)c1ccn(-c2ccccc2)c1", "melting point": "100 to 103"}, {"compound": "O=C(CNC(=O)c1ccc(Cl)cc1)c1ccsc1", "melting point": "160 to 161"}, {"compound": "CN(C)CCCCCCNC(=O)c1ccc(-c2cnc3c(c2)N(Cc2ccccc2)C(=O)CN3)cc1", "melting point": "> 200"}, {"compound": "COCCOc1ccc(/C=C(\\C)C(=O)NS(=O)(=O)C(F)(F)F)c(Oc2ncc(C(F)(F)F)cc2Cl)c1", "melting point": "146 to 147"}, {"compound": "COC(=O)Nc1cccc(C)c1COc1cccn2c(C)c(C)nc12", "melting point": "176 to 177"}, {"compound": "Fc1cc(F)c(-c2c(Cl)ncn2-c2ccc(Cl)cc2)c(F)c1", "melting point": "102 to 104"}, {"compound": "CCCCCCc1ccc(C=CC(=O)c2ccc(OCC=C(C)C)cc2OCC(=O)O)cc1", "melting point": "106 to 108"}, {"compound": "Cn1nc(-c2cccc(N3Cc4cc(C(C)(C)C)ccc4C3=O)c2CO)cc(Nc2ccccn2)c1=O", "melting point": "236 to 237"}, {"compound": "Fc1ccc(F)c(CN2CCNc3ncc(-c4ccnc(N5CCOCC5)c4)cc32)c1Cl", "melting point": 157}, {"compound": "CC1(C)COc2cc3c(cc21)C1(CO3)C(=O)N(C(c2ccccc2)c2ccccc2)c2ccccc21", "note": "(centres undefined)", "melting point": "190 to 192"}, {"compound": "CCOC(=O)Nc1ccc(OC23CC4CC(CC(C4)C2)C3)cc1", "melting point": "116 to 118"}, {"compound": "CC(C)(OC(=O)Cc1cccc(F)c1)C(=O)c1ccc(S(C)(=O)=O)cc1", "melting point": 173}, {"compound": "CC1=C(C#CC(C)C=CO)C(C)(C)CCC1=O", "note": "(centres undefined)", "melting point": "102 to 105"}, {"compound": "CCCc1c(OCCCOc2ccc(C(=O)OCC)cc2)ccc(C(C)=O)c1O", "melting point": "86 to 87"}, {"compound": "COC(=O)c1cc2c3c(cc(OCc4ccccc4)c2[nH]1)N(C(=O)OC(C)(C)C)C[C@H]3COC(C)=O", "melting point": "128 to 130"}, {"compound": "O=c1[nH]c2ccc(-c3cc(CN4CCC(Cc5ccc(F)cc5)CC4)on3)cc2o1", "melting point": "237 to 244"}, {"compound": "CC(C)C(O)c1cccc(S(N)(=O)=O)c1", "note": "(centres undefined)", "melting point": "152 to 153"}, {"compound": "CCc1ccc(S(=O)(=O)NC(C)(C)C)s1", "melting point": 38}]}]}
